Data published in PubChem BioAssay AID1963842 (Molecular Pharmacology Branch, DTP, NCI, 2024).

Test system: 677734-321-R-J1-PDC complex spheroid viability
Assay: Anticancer human tumor 677734-321-R-J1-PDC patient-derived soft tissue sarcoma cell line growth inhibition [POLQ]
Conditions: for IC50: curve of first compound; for viability, T/C: stronger effect = lower value
Outline: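 Growth inhibition in 3D: complex spheroids (tumor PDC, HUVEC, MSC) treated with POLQ inhibitor combinations; where Cmax unknown, highest tested concentration 10 microM, except SN-38 at 1 microM.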

[1] = second compound 0.0316 µM, first compound 0.0316 µM
[2] = second compound 0.0316 µM, first compound 0.1 µM
[3] = second compound 0.0316 µM, first compound 0.316 µM
[4] = second compound 0.0316 µM, first compound 1 µM
[5] = second compound 0.1 µM, first compound 0.0316 µM
[6] = second compound 0.1 µM, first compound 0.1 µM
[7] = second compound 0.1 µM, first compound 0.316 µM
[8] = second compound 0.1 µM, first compound 1 µM
[9] = second compound 0.316 µM, first compound 0.0316 µM
[10] = second compound 0.316 µM, first compound 0.1 µM
[11] = second compound 0.316 µM, first compound 0.316 µM
[12] = second compound 0.316 µM, first compound 1 µM
[13] = second compound 1 µM, first compound 0.0316 µM
[14] = second compound 1 µM, first compound 0.1 µM
[15] = second compound 1 µM, first compound 0.316 µM
[16] = second compound 1 µM, first compound 1 µM
[17] = second compound 3.16 µM, first compound 0.0316 µM
[18] = second compound 3.16 µM, first compound 0.1 µM
[19] = second compound 3.16 µM, first compound 0.316 µM
[20] = second compound 3.16 µM, first compound 1 µM
[21] = second compound 10 µM, first compound 0.0316 µM
[22] = second compound 10 µM, first compound 0.1 µM
[23] = second compound 10 µM, first compound 0.316 µM
[24] = second compound 10 µM, first compound 1 µM
[25] = second compound 0.0316 µM, first compound 3.16 µM
[26] = second compound 0.0316 µM, first compound 10 µM
[27] = second compound 0.1 µM, first compound 3.16 µM
[28] = second compound 0.1 µM, first compound 10 µM
[29] = second compound 0.316 µM, first compound 3.16 µM
[30] = second compound 0.316 µM, first compound 10 µM
[31] = second compound 1 µM, first compound 3.16 µM
[32] = second compound 1 µM, first compound 10 µM
[33] = second compound 3.16 µM, first compound 3.16 µM
[34] = second compound 3.16 µM, first compound 10 µM
[35] = second compound 10 µM, first compound 3.16 µM
[36] = second compound 10 µM, first compound 10 µM
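Further: spheroids exposed to compounds for one week.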
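Wherever viability, T/C is given: 100% = vehicle DMSO treated spheroids.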

C=CCn1c(=O)c2cnc(Nc3ccc(N4CCN(C)CC4)cc3)nc2n1-c1cccc(C(C)(C)O)n1 + Nc1ccc(C#CCN(C(=O)Cc2ncc(C(F)(F)F)cc2C(F)(F)F)c2ccc(F)cc2)nn1
IC50 (second compound 0.0316 µM): 727 nM | IC50 (second compound 0.1 µM): 682 nM | IC50 (second compound 0.316 µM): 664 nM | IC50 (second compound 1 µM): 644 nM | IC50 (second compound 3.16 µM): 496 nM | IC50 (second compound 10 µM): 805 nM | viability, T/C (second compound 0.0316 µM, first compound 0.00316 µM): 114% | viability, T/C (second compound 0.0316 µM, first compound 0.01 µM): 107% | viability, T/C [1]: 102% | viability, T/C [2]: 102% | viability, T/C [3]: 84.1% | viability, T/C [4]: 36.7% | viability, T/C (second compound 0.1 µM, first compound 0.00316 µM): 107% | viability, T/C (second compound 0.1 µM, first compound 0.01 µM): 111% | viability, T/C [5]: 122% | viability, T/C [6]: 97.2% | viability, T/C [7]: 80.8% | viability, T/C [8]: 35.1% | viability, T/C (second compound 0.316 µM, first compound 0.00316 µM): 119% | viability, T/C (second compound 0.316 µM, first compound 0.01 µM): 102% | viability, T/C [9]: 110% | viability, T/C [10]: 104% | viability, T/C [11]: 81.1% | viability, T/C [12]: 32.5% | viability, T/C (second compound 1 µM, first compound 0.00316 µM): 106% | viability, T/C (second compound 1 µM, first compound 0.01 µM): 102% | viability, T/C [13]: 112% | viability, T/C [14]: 93.2% | viability, T/C [15]: 85.4% | viability, T/C [16]: 29.3% | viability, T/C (second compound 3.16 µM, first compound 0.00316 µM): 114% | viability, T/C (second compound 3.16 µM, first compound 0.01 µM): 96.3% | viability, T/C [17]: 103% | viability, T/C [18]: 104% | viability, T/C [19]: 59% | viability, T/C [20]: 35.9% | viability, T/C (second compound 10 µM, first compound 0.00316 µM): 116% | viability, T/C (second compound 10 µM, first compound 0.01 µM): 113% | viability, T/C [21]: 108% | viability, T/C [22]: 97.1% | viability, T/C [23]: 74.6% | viability, T/C [24]: 44.2%

CC1COCCN1c1cc(C2(S(C)(=N)=O)CC2)nc(-c2ccnc3[nH]ccc23)n1 (stereo unspecified) + Nc1ccc(C#CCN(C(=O)Cc2ncc(C(F)(F)F)cc2C(F)(F)F)c2ccc(F)cc2)nn1
IC50 (second compound 0.0316 µM): 1370 nM | IC50 (second compound 0.1 µM): 1230 nM | IC50 (second compound 0.316 µM): 879 nM | IC50 (second compound 1 µM): 1030 nM | IC50 (second compound 3.16 µM): 884 nM | IC50 (second compound 10 µM): 656 nM | viability, T/C [1]: 98.3% | viability, T/C [2]: 91.7% | viability, T/C [3]: 75% | viability, T/C [4]: 65.3% | viability, T/C [25]: 23.5% | viability, T/C [26]: 9.33% | viability, T/C [5]: 96.2% | viability, T/C [6]: 118% | viability, T/C [7]: 73.6% | viability, T/C [8]: 57.1% | viability, T/C [27]: 28.1% | viability, T/C [28]: 7.36% | viability, T/C [9]: 109% | viability, T/C [10]: 105% | viability, T/C [11]: 105% | viability, T/C [12]: 42.7% | viability, T/C [29]: 27.1% | viability, T/C [30]: 9.47% | viability, T/C [13]: 118% | viability, T/C [14]: 94.5% | viability, T/C [15]: 72.9% | viability, T/C [16]: 59.2% | viability, T/C [31]: 19.1% | viability, T/C [32]: 8.77% | viability, T/C [17]: 111% | viability, T/C [18]: 87.1% | viability, T/C [19]: 96.9% | viability, T/C [20]: 43.3% | viability, T/C [33]: 21.7% | viability, T/C [34]: 8.55% | viability, T/C [21]: 105% | viability, T/C [22]: 103% | viability, T/C [23]: 72.6% | viability, T/C [24]: 35.2% | viability, T/C [35]: 19.3% | viability, T/C [36]: 6.41%

CNCc1ccc(-c2[nH]c3cc(F)cc4c3c2CCNC4=O)cc1 + Nc1ccc(C#CCN(C(=O)Cc2ncc(C(F)(F)F)cc2C(F)(F)F)c2ccc(F)cc2)nn1
IC50 (second compound 0.0316 µM): > 10000 nM | IC50 (second compound 0.1 µM): > 10000 nM | IC50 (second compound 0.316 µM): > 10000 nM | IC50 (second compound 1 µM): > 10000 nM | IC50 (second compound 3.16 µM): > 10000 nM | IC50 (second compound 10 µM): > 10000 nM | viability, T/C [1]: 90.2% | viability, T/C [2]: 99.6% | viability, T/C [3]: 100% | viability, T/C [4]: 81% | viability, T/C [25]: 101% | viability, T/C [26]: 81.6% | viability, T/C [5]: 113% | viability, T/C [6]: 106% | viability, T/C [7]: 107% | viability, T/C [8]: 100% | viability, T/C [27]: 106% | viability, T/C [28]: 61.8% | viability, T/C [9]: 100% | viability, T/C [10]: 109% | viability, T/C [11]: 106% | viability, T/C [12]: 127% | viability, T/C [29]: 94.5% | viability, T/C [30]: 80.1% | viability, T/C [13]: 118% | viability, T/C [14]: 86.4% | viability, T/C [15]: 106% | viability, T/C [16]: 91.8% | viability, T/C [31]: 88.7% | viability, T/C [32]: 67.4% | viability, T/C [17]: 97.7% | viability, T/C [18]: 109% | viability, T/C [19]: 109% | viability, T/C [20]: 113% | viability, T/C [33]: 101% | viability, T/C [34]: 63.5% | viability, T/C [21]: 97.4% | viability, T/C [22]: 99.3% | viability, T/C [23]: 89.2% | viability, T/C [24]: 114% | viability, T/C [35]: 107% | viability, T/C [36]: 63.6%
